In patent US20220251039A1, “Diaryl-B-Lactam Compound and Preparation Method and Pharmaceutical Use Thereof” (Fudan University, priority 2016, published 2022):

Key:
tubulin [1] = test: Immunoblotting analysis of polymerized/depolymerized tubulin; assay type: cell-based, human; details: Hela cells, 6 h
Procedure: After being treated with diluent (0.2% DMSO), tested compound, CA-4 or PTX for 6 h, Hela cells were lysed with microtubulestabilizing buffer, containing 100 mM PIPES, pH 6.8, 1 mM MgCl2, 2 mM EGTA, 0.5% NP-40, 2 M glycerol, 5 μM PTX and protease inhibitors cocktail (Roche), and the lysate was centrifuged at 15,000 rpm for 15 min. Supernatant containing depolymerized tubulin was carefully collected, whereas pellet (polymerized tubulin) was further dissolved in SDS-lysis buffer (Beyotime, China). Equal amounts of supernatant and dissolved pellet were subjected to immunoblotting analysis as described above using a tubulin antibody (Proteintech).

tubulin [2] = test: Immunofluorescent analysis of tubulin morphology; assay type: cell-based, human; details: SKOV-3 cells, 24 h
Procedure: After treatment with diluent (0.2% DMSO) or tested compounds at indicated concentrations for 24 h, SKOV-3 cells were fixed with methanol, permeabilized with 0.1% Triton X-100 in PBS and blocked by goat serum. Then the cells were incubated with a-tubulin antibody at 4° C. overnight, followed by incubation with Alexa 488 labeled secondary antibody (Jackson ImmunoResearch) at RT for 1 h. After being stained with DAPI, cells were examined and photographed with a Leica SP5 co-focal fluorescence microscope.

For `C=C1C(=O)N(c2cc(OC)c(OC)c(OC)c2)[C@H]1c1ccc(OC)c(O)c1` [Compound 1, (S)-4-(3-hydroxy-4-methoxyphenyl)-3-methylene-1-(3,4,5-trimethoxyphenyl)azetidin-2-one], the “polymerized tubulin (immunoblotting)” value (tubulin [1]) was “significantly inhibit tubulin aggregation” and the “tubulin assembly (immunofluorescence)” value (tubulin [2]) was “significantly inhibit tubulin aggregation”.
